# Results taken from the supplement of paper PMC10307832.
# Tests used:
# Experiment in all cases: relative viability (nuclei count vs DMSO), 5 days (fraction); higher = more cells survive
# [1] = compound: CC1=NC=CC(=C1)C2=CC=C(C=C2)CC(=O)NC3=CC=C(C=C3)C4=CN=CC=C4 [Wnt-C59] + CC(=O)Nc1cccc(-n2c(=O)n(C3CC3)c(=O)c3c(Nc4ccc(I)cc4F)n(C)c(=O)c(C)c32)c1 [Trametinib] (partner 0.02 µM)
# In short: (§1)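 The day after seeding in 1536-well plates, lung cancer cell lines were treated by pin tool with a single drug, or with a fixed anchor-drug dose together with five library-drug doses (not always all listed) in √10 steps. After 5 days, a combined fix-and-stain solution (final 0.05% Triton X-100, 1% formaldehyde, 1 ug/ml Hoechst) was added. Nuclei counted on 4× images gave relative viability as treated counts over vehicle counts, reported as the median of duplicate plates.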
# [2] = compound: CC1=NC=CC(=C1)C2=CC=C(C=C2)CC(=O)NC3=CC=C(C=C3)C4=CN=CC=C4 [Wnt-C59] + N=C(N)NC(=N)NCCc1ccccc1 [Phenformin] (partner 250 µM)
# In short: as §1
# [3] = compound: CC1=NC=CC(=C1)C2=CC=C(C=C2)CC(=O)NC3=CC=C(C=C3)C4=CN=CC=C4 [Wnt-C59] + Nc1ncn([C@H]2C[C@H](O)[C@@H](CO)O2)c(=O)n1 [Decitabine] (partner 2 µM)
# In short: as §1
# [4] = compound: CS(=O)(=O)CCNCc1ccc(-c2ccc3ncnc(Nc4ccc(OCc5cccc(F)c5)c(Cl)c4)c3c2)o1 [Lapatinib] + Cc1cc(Nc2cc(N3CCN(C)CC3)nc(Sc3ccc(NC(=O)C4CC4)cc3)n2)n[nH]1 [Tozasertib] (partner 0.1 µM)
# In short: as §1
Cell Line,relative viability ([1]; first compound 0.001 µM),relative viability ([1]; first compound 0.01 µM),relative viability ([1]; first compound 0.03162 µM),relative viability ([1]; first compound 0.1 µM),relative viability ([2]; first compound 0.001 µM),relative viability ([2]; first compound 0.01 µM),relative viability ([2]; first compound 0.03162 µM),relative viability ([2]; first compound 0.1 µM),relative viability ([3]; first compound 0.001 µM),relative viability ([3]; first compound 0.01 µM),relative viability ([3]; first compound 0.03162 µM),relative viability ([3]; first compound 0.1 µM),relative viability ([4]; first compound 0.02 µM),relative viability ([4]; first compound 0.06325 µM),relative viability ([4]; first compound 0.2 µM),relative viability ([4]; first compound 0.6325 µM),relative viability ([4]; first compound 2 µM)
201T,0.698,0.747,0.733,0.698,0.446,0.43,0.424,0.452,0.861,0.824,0.902,0.812,0.967,0.716,0.886,0.923,0.792
A549,–,–,–,–,0.213,0.144,0.253,0.169,0.222,0.247,0.247,0.225,–,–,–,–,–
A-427,0.749,0.746,0.81,0.876,0.334,0.338,0.407,0.384,0.623,0.564,0.615,0.588,–,0.252,0.209,0.231,0.185
ABC-1,–,–,–,–,0.237,0.248,0.257,0.262,1.08,1.14,1.05,0.938,0.155,0.187,0.156,0.155,0.16
BEN,1.13,0.995,1,1.04,0.292,0.27,0.269,0.247,0.667,0.741,0.807,0.782,–,0.513,0.51,0.515,0.351
CAL-12T,0.327,0.378,0.367,0.381,0.564,0.581,0.576,0.566,–,–,–,–,–,0.274,0.333,0.273,0.122
COR-L23,0.626,0.648,0.684,0.56,0.427,0.471,0.442,0.416,0.489,0.47,0.493,0.525,0.149,0.131,0.152,0.165,0.109
COR-L 105,0.444,0.433,0.448,0.488,0.48,0.509,0.477,0.479,0.613,0.618,0.663,0.586,0.351,0.351,0.355,0.294,0.244
ChaGo-K-1,0.845,0.875,0.96,0.841,0.557,0.466,0.531,0.539,0.56,0.484,0.534,0.534,0.218,0.194,0.206,0.2,0.208
EKVX,0.366,–,0.324,0.319,0.225,0.216,0.216,0.241,0.313,–,0.417,0.374,0.366,0.333,0.448,0.273,0.143
EMC-BAC-2,0.797,0.697,0.793,0.713,0.533,0.484,0.525,0.505,0.932,0.914,0.89,0.89,0.309,0.344,0.309,0.319,0.299
EPLC-272H,0.275,0.277,0.316,0.298,0.297,0.303,0.335,0.335,0.443,0.369,0.472,0.364,–,–,0.21,0.2,0.239
H3255,0.664,0.495,0.683,0.506,0.372,0.321,0.356,0.332,0.62,0.601,0.668,0.515,0.317,0.45,0.591,0.527,0.282
HARA,0.785,0.691,0.933,0.879,0.458,0.49,0.528,0.447,0.604,0.455,0.543,0.587,–,0.0893,0.0933,0.0794,0.119
HCC-15,0.417,0.371,0.404,0.359,0.47,0.515,0.48,0.438,0.621,0.607,0.661,0.606,–,0.382,0.371,0.424,0.283
HCC-44,1.11,0.969,0.996,1.09,0.315,0.201,0.153,0.23,1.01,0.963,0.95,0.939,–,0.622,0.81,0.762,0.725
HCC-78,0.691,0.746,0.908,0.854,0.548,0.685,0.701,0.72,0.695,0.754,0.734,0.641,–,0.327,0.407,0.377,0.328
HCC-366,0.398,0.4,0.385,0.341,0.614,0.605,0.668,0.528,0.317,0.427,0.342,0.387,–,0.0794,0.0593,0.0794,0.0545

Cell Line,relative viability ([1]; first compound 0.001 µM),relative viability ([1]; first compound 0.01 µM),relative viability ([1]; first compound 0.03162 µM),relative viability ([1]; first compound 0.1 µM),relative viability ([2]; first compound 0.001 µM),relative viability ([2]; first compound 0.01 µM),relative viability ([2]; first compound 0.03162 µM),relative viability ([2]; first compound 0.1 µM),relative viability ([3]; first compound 0.001 µM),relative viability ([3]; first compound 0.01 µM),relative viability ([3]; first compound 0.03162 µM),relative viability ([3]; first compound 0.1 µM),relative viability ([4]; first compound 0.02 µM),relative viability ([4]; first compound 0.06325 µM),relative viability ([4]; first compound 0.2 µM),relative viability ([4]; first compound 0.6325 µM),relative viability ([4]; first compound 2 µM)
HCC-827,0.545,0.477,0.48,0.547,0.431,0.413,0.452,0.391,0.399,0.331,0.385,0.334,0.41,0.418,0.414,0.412,0.144
HOP-62,0.347,0.366,0.352,0.347,0.771,0.603,0.662,0.607,0.19,0.238,0.227,0.231,0.334,0.343,0.377,0.343,0.295
LC-2-ad,0.904,0.874,0.905,0.9,0.68,0.546,0.659,0.545,0.756,0.714,0.927,0.772,–,0.392,0.444,0.456,0.372
LCLC-97TM1,0.216,0.201,0.22,0.193,0.397,0.425,0.475,0.429,0.262,0.266,0.227,0.238,–,–,0.214,0.229,0.176
LCLC-103H,0.716,0.667,0.667,0.713,0.352,0.334,0.366,0.329,0.729,0.758,0.785,0.698,0.419,0.448,0.455,0.407,0.384
LK-2,0.767,0.869,0.713,0.817,0.479,0.379,0.481,0.321,0.319,0.329,0.319,0.323,–,–,0.174,0.146,0.19
LOU-NH91,0.817,0.788,0.802,0.792,0.793,0.641,0.601,0.672,0.873,0.838,0.83,0.822,0.643,0.504,0.524,0.51,0.427
LU99A,0.583,0.474,0.569,0.506,0.904,0.845,0.879,0.876,0.943,0.937,0.897,0.878,0.281,0.293,0.239,0.195,0.216
LXF-289,0.617,0.629,0.73,0.632,0.552,0.535,0.552,0.503,0.396,0.369,0.446,0.386,0.178,0.155,0.177,0.173,0.168
NCI-H23,0.396,0.346,0.385,0.432,0.842,0.663,0.907,0.749,0.292,0.29,0.35,0.325,–,–,0.29,0.307,0.218
NCI-H322M,0.581,0.484,0.412,0.504,0.775,0.683,0.629,0.581,0.729,0.655,0.666,0.63,0.437,0.457,0.395,0.477,0.343
NCI-H358,0.129,0.119,0.143,0.1,0.343,0.257,0.431,0.337,0.223,0.207,0.295,0.213,0.0946,0.0876,0.0913,0.078,0.0817
NCI-H1563,–,–,–,–,0.688,0.673,0.693,0.666,–,–,–,–,–,–,–,–,–
NCI-H1623,–,–,–,–,0.582,0.562,0.607,0.572,–,–,–,–,0.423,0.344,–,0.379,0.154
NCI-H1648,0.564,0.45,0.63,0.491,–,–,–,–,0.581,0.405,0.496,0.561,0.361,0.215,0.689,0.361,0.325
NCI-H1792,0.395,0.348,0.526,0.352,0.363,0.301,–,0.22,0.636,0.524,0.536,0.506,–,–,–,–,–
NCI-H2228,0.549,0.574,0.477,0.499,0.325,0.385,0.294,0.415,–,–,–,–,0.25,0.258,0.145,0.205,0.135
